Biological target: T1, PspXyn10 (Penicillium sp., UniProt A0A2Z5XER4)
T1 construct: full-length cDNA (404 residues), predicted signal peptide 1-22 removed on secretion; GH10 (25-336) + CBM1 (372-404); untagged, expressed in Trichoderma reesei C1PX10, purified; 55 kDa on SDS-PAGE; internal peptides LYYNDYNLESAGAK, NHLTNVVTHYK, YAWDVVNEGLNDDGTYR
T1 sequence (A0A2Z5XER4 23-404): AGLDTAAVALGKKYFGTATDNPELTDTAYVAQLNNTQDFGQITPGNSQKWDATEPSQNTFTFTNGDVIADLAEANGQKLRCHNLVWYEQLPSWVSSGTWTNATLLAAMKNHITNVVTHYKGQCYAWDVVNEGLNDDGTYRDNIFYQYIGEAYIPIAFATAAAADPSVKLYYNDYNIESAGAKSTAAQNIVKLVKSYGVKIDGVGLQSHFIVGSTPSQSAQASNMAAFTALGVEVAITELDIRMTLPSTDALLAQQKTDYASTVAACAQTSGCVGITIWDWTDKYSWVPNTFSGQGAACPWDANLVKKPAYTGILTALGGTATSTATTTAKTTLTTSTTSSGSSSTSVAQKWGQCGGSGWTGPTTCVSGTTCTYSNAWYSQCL
Assay: p-nitrophenol release, absorbance at […] nm
Type: biochemical
Settings: 1 mM substrate; 50 mM sodium acetate pH 5.0; 50 °C; 5 min

Compound: O=[N+]([O-])c1ccc(O[C@@H]2OC[C@@H](O[C@@H]3OC[C@@H](O)[C@H](O)[C@H]3O)[C@H](O)[C@H]2O)cc1 [pNPX2, p-nitrophenyl xylobioside]
- specific activity: enzymatic activity of purified PspXyn10, JN11H, and JNK25H against p-nitrophenyl xylobioside (pNPX2) was assayed

Source: article PMC5698967, “A novel GH10 xylanase from Penicillium sp. accelerates saccharification of alkaline-pretreated bagasse by an enzyme from recombinant Trichoderma reesei expressing Aspergillus β-glucosidase” (Biotechnology for Biofuels, 2017)
